In patent US11850246B2, “Method for treatment of cytokine release syndrome” (NOVMETAPHARMA CO., LTD., priority 2020, dated 2023):

Legend:
[1] = system: macrophage; experiment: Anti-inflammatory effect on LPS-activated macrophage: activation surface markers by flow cytometry; assay type: cell-based; settings: 5 μM compound; macrophage activated with 100 ng/mL LPS; 24 hours after LPS treatment; flow cytometry (FIG. 1A-1C)
Experimental: Dysregulation of immune activation in innate immune cell is the main factor initiating cytokine release syndrome. Immune regulatory effects of the compound of Chemical Formula 1 on macrophage were assessed employing compound 18a (DMRC200434). 5 μM DMRC200434 was treated on activated macrophage with 100 ng/mL lipopolysaccharide (LPS) (Sigma-Aldrich). 24 hours after LPS treatment, activation markers (CD40, CD80, CD86) were measured by flow cytometry.

[2] = system: LPS induced endotoxemia model; experiment: LPS induced endotoxemia model, survival; assay type: in vivo, C57BL/6 mice; settings: 30 mg/kg injected 24 hours prior to and at start of LPS (50 mg/kg) injection; survival observed for 50 hours (FIG. 2)
Experimental: 6 to 8-week female C57BL/6 mice (Jackson Lab) were used according to an animal protocol approved by the Institutional Animal Care and Use Committee of Kyungpook National University.
Compound of Chemical Formula 1 (DMRC200434, 30 mg/kg) was dissolved in a solution of 5%—DMSO: 95%—20% PEG400(Saline) and was injected at two points—at 24 hours prior to, and at the start of LPS (50 mg/kg) injection.
The inventors analyzed the efficacy of a compound of Chemical Formula 1 in vivo on LPS-induced endotoxemia model employing DMRC200434. To assess the effect of DMRC200434 on endotoxemia, DMRC200434 was treated on LPS induced endotoxemia model.

SMILES: CC(C)N1CCN(c2ccc(/C(=C(/CCCO)c3ccccc3)c3ccc(O)cc3)cc2)CC1 [DMRC200434, (E)-5-(4-hydroxyphenyl)-5-(4-(4-isopropylpiperazin-1-yl)phenyl)-4-phenylpent-4-en-1-ol]
- expression of inflammatory surface marker CD40 [1]: downregulated
- expression of inflammatory surface marker CD80 [1]: downregulated
- expression of inflammatory surface marker CD86 [1]: downregulated
- endotoxin mediated death (survival) [2]: significantly delayed
